Test results taken from patent US12569470B2, “Vasodilator and use thereof” (Bioradical Research Institute Corp., priority 2019, dated 2026).

Experiments:
[1] = tested on: superoxide produced by the neutrophils; test: Superoxide production amount of PMA-stimulated neutrophils, CLA chemiluminescence; format: cell-based, human; details: 0-200 or 0-5,000 μmol/1, PMA 100 ng/ml, 30 minutes, control being 100, FIG. 2
Description: For examining the reactive oxygen-eliminating effect of the vasodilator of the present invention, the superoxide produced by the neutrophils when the neutrophils isolated from the peripheral blood of healthy individuals were stimulated with PMA (phorbor-12-myristate-13-acetate) was used. The superoxide production amount was measured by chemiluminescence using CLA (2-methyl-6-phenyl-3, 7-dihydroimidazo[1,2-α]pyrazine-3-one).
First, ED2AP, BisEp-C3, edaravone, BisEp-C1, or BisEp-C1 (H2) was added to a neutrophil of 4×10^5 cells per sample so as to achieve a predetermined concentration (0, 12.5, 25, 50, 100, or 200 μmol/1, or 0, 125, 250, 500, 1,250, 2,500 or 5,000 μmol/1) with […] of CLA, and then the cell suspension was seeded in flat-bottomed 96-well plates. The volume of the suspension was 200 μl/well, and phenol red-free Ca+, Mg+ HBSS was used as the solution. […] After the stimulation, a plate reader (Envision 2104 Multilabel Reader produced by Perkin Elmer Co., Ltd.) was used to measure the chemiluminescence value over time for 30 minutes with the PMA stimulation time being a reference. […] In addition, as a control, the superoxide production amount was measured in the same manner except that each compound was not added. The relative value of the superoxide production amount when each compound was added was calculated with the superoxide production amount of the control being 100.

[2] = tested on: rat neuroid cells B50; test: Cytoprotection against singlet oxygen (Rose Bengal + G-LED), Alamar Blue fluorescence; format: cell-based; details: 0, 12.5, 25, 50, or 100 μmol/1, RB 200 nmol/1 + G-LED 5 minutes, negative control being 100, FIG. 3
Description: Edaravone, ED2AP and BisEp-C3 were examined for whether they had the function of alleviating neuronopathy. Specifically, singlet oxygen was generated by combining Rose Bengal (RB), which is a sensitizer, with green light (G-LED), and the function of alleviating the cytotoxicity of the generated singlet oxygen was examined with the cellular activity being an indicator.
First, rat neuroid cells B50 were cultured in 12-well dishes at 2×10^5 cells/well (medium: RPMI-1640 medium containing 5% FCS) overnight. After the culturing, the medium of each well was replaced with HBSS (1,000 μl/well; phenol red-free Ca+, Mg+) containing 200 nmol/1 RB and edaravone, ED2AP, or BisEp-C3 having a predetermined concentration (0, 12.5, 25, 50, or 100 μmol/1). The dish was then irradiated with G-LED for 5 minutes to generate singlet oxygen. Thereafter, the medium of each well was replaced with 1,000 μl of HBSS, and Alamar Blue was added. The dish was then allowed to react for about 2 hours in an incubator at 37° C. and 5%CO2. After the reaction, fluorescence intensity (excitation wavelength: λ- 560 nm, fluorescence wavelength: λ-595 nm) was measured with a plate reader (infinite200, Tecan Trading AG). In this experimental system, the higher the cellular activity, the more Alamar Blue is taken up and the higher the fluorescence intensity. As a control, fluorescence intensity was measured in the same manner except that sodium azide (Azide, NaN3) was added instead of the compounds so as to achieve a concentration of 4 mmol/1. As a negative control (NC), fluorescence intensity was measured in the same manner except that RB was not added. The relative value of the fluorescence intensity in the sample to which each compound was added was calculated with the fluorescence intensity of the negative control being 100.

[3] = Water solubility noted at synthesis; format: physicochemical; details: noted for the isolated crystal
Description: 3.58 g of 3-methyl-1-phenyl-5-pyrazolone (hereinafter also referred to as “edaravone”), 2.59 g of malonaldehyde dianilide hydrochloride, and 20 ml of ethanol were added to a reactor and dissolved. To the obtained solution, 2.04 g of triethylamine and 0.4 ml of water were added and stirred for 1 hour at room temperature (about 25° C.; hereinafter, the same applies). After the stirring, the resultant was further reacted for 1 hour at 50° C. After discharging the obtained reaction solution to 100 ml of 1N hydrochloric acid, the mixture was sufficiently stirred and the precipitate was filtered. The resulting cake was washed with water. The cake was added to 200 ml of an aqueous sodium hydroxide solution having a 1% by weight concentration and completely dissolved by heating with stirring. Next, the dissolved solution was stirred for 3 hours after cooling to room temperature. Then, the liquid containing the obtained precipitate was filtered, and then the cake was washed with water. […] Note that the melting point of ED2AP was 249° C., which was water-soluble.
3 ml of dimethylformamide was added to a reactor and the exterior of the reactor was cooled with ice water. 1.75 g of phosphorus oxychloride was slowly dropped into the reactor (Reaction Solution A). In another reactor, 1.78 g of edaravone was dissolved in 5 ml of dimethylformamide (Reaction Solution B). […]

For `CCN1N=C(C)/C(=C\C=C\c2c(C)nn(CC)c2O)C1=O` [BisEp-C3, 2,4-dihydro-4-[3-(1-ethyl-5-hydroxy-3-methyl-1H-pyrazol-4-yl)-2-propen-1-ylidene]-2-ethyl-5-methyl-3H-pyrazol-3-one], the “relative value of the superoxide production amount” value [1] was “remarkably suppressed superoxide production amount”, the “relative value of the fluorescence intensity” value [2] was “recovered in a concentration-dependent manner” and the solubility in water [3] was “water-soluble”.

For `CC1=NN(c2ccccc2)C(=O)/C1=C/C=C/c1c(C)nn(-c2ccccc2)c1O` [ED2AP, 2,4-dihydro-4-[3-(5-hydroxy-3-methyl-1-phenyl-1H-pyrazol-4-yl)-2-propen-1-ylidene]-5-methyl-2-phenyl-3H-pyrazol-3-one], the “relative value of the superoxide production amount” value [1] was “remarkably suppressed superoxide production amount”, the “relative value of the fluorescence intensity” value [2] was “recovered in a concentration-dependent manner” and the solubility in water [3] was “water-soluble”.
